Measured values published in publication PMC4448990 (Pharmacology Research & Perspectives, 2015).

Tests used:
[1] = tested on: Sodium, site 2; experiment: in vitro selectivity profile; assay type: binding; details: eslicarbazepine 400 μmol/L
[2] = tested on: Histamine, H1; experiment: in vitro selectivity profile; assay type: binding; details: eslicarbazepine 400 μmol/L
[3] = tested on: Angiotensin II, AT2; experiment: in vitro selectivity profile; assay type: binding; details: eslicarbazepine 400 μmol/L
[4] = molecular target: Cannabinoid, CB1 (h) (Homo sapiens, UniProt P21554); experiment: in vitro selectivity profile; assay type: binding
[5] = molecular target: Opioid, Mu (h) (Homo sapiens, UniProt P35372); experiment: in vitro selectivity profile; assay type: binding
[6] = tested on: Oxidase, MAO-B, central; experiment: in vitro selectivity profile; assay type: biochemical; details: eslicarbazepine 400 μmol/L
[7] = molecular target: Kinase, protein, PKA (h) (Homo sapiens, UniProt P17612); experiment: in vitro selectivity profile; assay type: biochemical
[8] = molecular target: Muscarinic, M4 (h) (Homo sapiens, UniProt P08173); experiment: in vitro selectivity profile; assay type: binding
[9] = molecular target: Esterase, acetylcholine (h) (Homo sapiens, UniProt P22303); experiment: in vitro selectivity profile; assay type: biochemical
[10] = molecular target: Kinase, protein, PKCb2 (h) (Homo sapiens, UniProt P05771); experiment: in vitro selectivity profile; assay type: biochemical
Sequence of Kinase, protein, PKCb2 (h) (P05771 1-673 isoform P05771-2): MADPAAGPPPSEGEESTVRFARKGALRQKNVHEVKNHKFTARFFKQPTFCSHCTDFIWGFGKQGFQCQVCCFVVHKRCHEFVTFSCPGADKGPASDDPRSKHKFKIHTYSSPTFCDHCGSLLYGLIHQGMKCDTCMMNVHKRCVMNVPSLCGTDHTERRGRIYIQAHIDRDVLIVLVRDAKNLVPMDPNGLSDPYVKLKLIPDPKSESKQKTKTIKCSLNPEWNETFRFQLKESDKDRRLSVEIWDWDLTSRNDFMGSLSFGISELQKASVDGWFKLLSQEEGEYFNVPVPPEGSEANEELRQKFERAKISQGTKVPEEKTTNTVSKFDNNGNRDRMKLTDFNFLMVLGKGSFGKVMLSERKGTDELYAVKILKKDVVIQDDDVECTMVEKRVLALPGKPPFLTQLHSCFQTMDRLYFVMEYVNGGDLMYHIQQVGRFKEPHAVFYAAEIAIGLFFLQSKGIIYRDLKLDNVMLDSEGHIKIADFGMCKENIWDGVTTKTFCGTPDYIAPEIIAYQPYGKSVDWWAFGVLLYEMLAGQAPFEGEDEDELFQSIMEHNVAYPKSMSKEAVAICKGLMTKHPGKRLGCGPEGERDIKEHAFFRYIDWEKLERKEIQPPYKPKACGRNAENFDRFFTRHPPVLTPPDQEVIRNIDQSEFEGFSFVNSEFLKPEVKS

[11] = tested on: Dopamine, D3; experiment: in vitro selectivity profile; assay type: binding; details: eslicarbazepine 400 μmol/L
[12] = tested on: transient Na+ current (INaT); details: ref Döser et al. [2013b], [2015]; cited from earlier work
[13] = molecular target: human GRIA1 receptor (Homo sapiens, UniProt P42261); experiment: AMPA-receptor-mediated currents in CHO cells; assay type: cell-based; details: CHO cells, human GRIA1
[14] = molecular target: human Nav1.3 sodium channels (Homo sapiens, UniProt Q9NY46); experiment: whole-cell patch clamp, Nav1.3 in CHO-K1 cells; assay type: cell-based; details: 250 μmol/L
Sequence of human Nav1.3 sodium channels (Q9NY46 whole entry): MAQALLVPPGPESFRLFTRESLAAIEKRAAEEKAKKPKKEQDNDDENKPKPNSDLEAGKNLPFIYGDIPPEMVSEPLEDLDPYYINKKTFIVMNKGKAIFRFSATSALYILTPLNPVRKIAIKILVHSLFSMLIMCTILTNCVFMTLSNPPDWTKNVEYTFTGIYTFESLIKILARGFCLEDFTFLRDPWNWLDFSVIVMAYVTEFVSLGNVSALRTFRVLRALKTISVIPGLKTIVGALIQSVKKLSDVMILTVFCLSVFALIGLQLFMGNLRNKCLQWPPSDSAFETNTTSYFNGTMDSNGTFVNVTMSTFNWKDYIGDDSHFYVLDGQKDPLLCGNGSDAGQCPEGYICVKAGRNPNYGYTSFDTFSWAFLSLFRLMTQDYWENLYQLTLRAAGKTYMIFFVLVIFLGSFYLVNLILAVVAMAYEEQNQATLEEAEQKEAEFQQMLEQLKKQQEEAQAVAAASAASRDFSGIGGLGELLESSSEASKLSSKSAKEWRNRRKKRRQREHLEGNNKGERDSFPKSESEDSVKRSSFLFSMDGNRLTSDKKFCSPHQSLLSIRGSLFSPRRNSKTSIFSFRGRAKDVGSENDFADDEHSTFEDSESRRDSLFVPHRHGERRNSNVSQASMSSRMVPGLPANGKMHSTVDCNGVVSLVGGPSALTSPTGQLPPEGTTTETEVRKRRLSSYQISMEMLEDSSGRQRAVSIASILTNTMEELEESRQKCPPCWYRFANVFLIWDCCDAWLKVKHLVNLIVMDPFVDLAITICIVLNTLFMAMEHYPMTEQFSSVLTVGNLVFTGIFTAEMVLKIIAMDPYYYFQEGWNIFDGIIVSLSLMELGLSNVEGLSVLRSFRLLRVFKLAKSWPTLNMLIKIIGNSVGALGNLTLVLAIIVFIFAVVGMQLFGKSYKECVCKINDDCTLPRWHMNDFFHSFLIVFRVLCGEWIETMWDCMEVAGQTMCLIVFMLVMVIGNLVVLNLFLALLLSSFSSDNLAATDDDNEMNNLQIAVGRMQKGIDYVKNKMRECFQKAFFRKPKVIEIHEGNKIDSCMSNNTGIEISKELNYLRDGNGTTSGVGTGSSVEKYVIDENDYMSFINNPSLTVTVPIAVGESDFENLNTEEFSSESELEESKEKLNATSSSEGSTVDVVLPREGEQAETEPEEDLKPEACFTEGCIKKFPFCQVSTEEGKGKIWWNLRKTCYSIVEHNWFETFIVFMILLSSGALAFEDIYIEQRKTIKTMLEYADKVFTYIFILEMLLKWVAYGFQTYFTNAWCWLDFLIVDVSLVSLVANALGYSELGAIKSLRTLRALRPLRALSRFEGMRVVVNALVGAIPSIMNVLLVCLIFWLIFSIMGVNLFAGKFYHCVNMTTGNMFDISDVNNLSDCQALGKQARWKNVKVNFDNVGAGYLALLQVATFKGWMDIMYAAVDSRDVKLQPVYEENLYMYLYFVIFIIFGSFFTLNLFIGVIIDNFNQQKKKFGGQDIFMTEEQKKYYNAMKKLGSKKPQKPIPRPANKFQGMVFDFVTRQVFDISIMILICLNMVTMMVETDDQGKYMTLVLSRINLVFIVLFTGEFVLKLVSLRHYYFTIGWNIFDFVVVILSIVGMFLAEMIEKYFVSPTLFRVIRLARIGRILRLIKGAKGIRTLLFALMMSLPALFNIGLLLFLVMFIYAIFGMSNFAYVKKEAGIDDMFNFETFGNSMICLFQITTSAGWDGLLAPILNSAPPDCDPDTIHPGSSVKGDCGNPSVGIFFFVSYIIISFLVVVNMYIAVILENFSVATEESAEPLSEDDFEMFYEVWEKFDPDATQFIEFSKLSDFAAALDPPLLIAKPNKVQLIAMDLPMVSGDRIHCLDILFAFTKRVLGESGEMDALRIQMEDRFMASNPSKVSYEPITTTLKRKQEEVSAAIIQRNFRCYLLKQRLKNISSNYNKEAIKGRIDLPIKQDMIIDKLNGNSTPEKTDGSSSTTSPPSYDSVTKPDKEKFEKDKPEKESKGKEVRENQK

[15] = tested on: Corticotropin-releasing factor, nonselective; experiment: in vitro selectivity profile; assay type: binding; details: eslicarbazepine 400 μmol/L
[16] = tested on: GABA-B; experiment: in vitro selectivity profile; assay type: binding; details: eslicarbazepine 400 μmol/L
[17] = molecular target: Protease, caspase, CASP-8 (h) (Homo sapiens, UniProt Q14790); experiment: in vitro selectivity profile; assay type: biochemical
Sequence of Protease, caspase, CASP-8 (h) (Q14790 217-374 limits assumed): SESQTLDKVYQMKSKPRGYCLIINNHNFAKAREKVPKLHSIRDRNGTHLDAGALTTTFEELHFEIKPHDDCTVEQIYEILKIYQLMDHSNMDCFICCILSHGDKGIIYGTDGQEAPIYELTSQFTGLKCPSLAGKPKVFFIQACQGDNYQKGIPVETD
Sequence of Protease, caspase, CASP-8 (h) (Q14790 385-479 limits assumed): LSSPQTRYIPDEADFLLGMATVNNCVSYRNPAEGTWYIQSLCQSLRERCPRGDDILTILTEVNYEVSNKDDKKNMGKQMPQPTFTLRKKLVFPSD

[18] = tested on: Glutamate, kainate site; experiment: in vitro selectivity profile; assay type: binding; details: eslicarbazepine 400 μmol/L
[19] = tested on: Serotonin, 5HT1B; experiment: in vitro selectivity profile; assay type: binding; details: eslicarbazepine 400 μmol/L
[20] = tested on: Nitric oxide, NOS (neuronal-binding); experiment: in vitro selectivity profile; details: eslicarbazepine 400 μmol/L
[21] = tested on: Glutamate, mGluR5; experiment: in vitro selectivity profile; assay type: binding; details: eslicarbazepine 400 μmol/L
[22] = molecular target: Dopamine, D4.4 (h) (Homo sapiens, UniProt P21917); experiment: in vitro selectivity profile; assay type: binding
[23] = tested on: GABA A, BDZ, alpha 5 site; experiment: in vitro selectivity profile; assay type: binding; details: eslicarbazepine 400 μmol/L
[24] = tested on: transient Na+ channels; details: ref Döser et al. [2013c], [2015]; cited from earlier work
[25] = molecular target: Protease, caspase, CASP-3 (h) (Homo sapiens, UniProt P42574); experiment: in vitro selectivity profile; assay type: biochemical
[26] = tested on: Galanin, nonselective; experiment: in vitro selectivity profile; assay type: binding; details: eslicarbazepine 400 μmol/L
[27] = tested on: GABA A, BDZ, alpha 1 site; experiment: in vitro selectivity profile; assay type: binding; details: eslicarbazepine 400 μmol/L
[28] = tested on: Glutamate, NMDA, glycine (strychnine-insensitive); experiment: in vitro selectivity profile; assay type: binding; details: eslicarbazepine 400 μmol/L
[29] = tested on: Glutamate, AMPA site; experiment: in vitro selectivity profile; assay type: binding; details: eslicarbazepine 400 μmol/L
[30] = molecular target: Adenosine, A1 (h) (Homo sapiens, UniProt P30542); experiment: in vitro selectivity profile; assay type: binding
Sequence of Adenosine, A1 (h) (P30542 whole entry): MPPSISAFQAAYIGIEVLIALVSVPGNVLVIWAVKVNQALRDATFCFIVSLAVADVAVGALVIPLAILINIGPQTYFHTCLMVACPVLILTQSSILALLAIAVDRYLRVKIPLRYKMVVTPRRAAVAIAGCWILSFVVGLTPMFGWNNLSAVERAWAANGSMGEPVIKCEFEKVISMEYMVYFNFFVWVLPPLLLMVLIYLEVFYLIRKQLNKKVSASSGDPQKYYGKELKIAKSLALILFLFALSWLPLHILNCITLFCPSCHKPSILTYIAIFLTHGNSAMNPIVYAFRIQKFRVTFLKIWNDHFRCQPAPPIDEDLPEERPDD

[31] = molecular target: Anhydrase, carbonic, isozyme I (h) (Homo sapiens, UniProt P00915); experiment: in vitro selectivity profile; assay type: biochemical
Sequence of Anhydrase, carbonic, isozyme I (h) (P00915 whole entry): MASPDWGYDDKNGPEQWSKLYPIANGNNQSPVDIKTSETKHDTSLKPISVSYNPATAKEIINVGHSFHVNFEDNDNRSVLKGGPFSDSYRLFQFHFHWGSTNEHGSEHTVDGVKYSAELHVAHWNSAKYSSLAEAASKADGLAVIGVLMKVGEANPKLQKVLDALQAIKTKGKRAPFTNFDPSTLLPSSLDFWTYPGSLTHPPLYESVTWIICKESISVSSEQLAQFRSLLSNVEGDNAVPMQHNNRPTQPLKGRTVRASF

[32] = molecular target: human α5β2γ2 GABAA receptors (Homo sapiens, UniProt P18507+P31644+P47870); experiment: submaximal GABA currents in Ltk cells; assay type: cell-based
Sequence of human α5β2γ2 GABAA receptors (P31644 32-462): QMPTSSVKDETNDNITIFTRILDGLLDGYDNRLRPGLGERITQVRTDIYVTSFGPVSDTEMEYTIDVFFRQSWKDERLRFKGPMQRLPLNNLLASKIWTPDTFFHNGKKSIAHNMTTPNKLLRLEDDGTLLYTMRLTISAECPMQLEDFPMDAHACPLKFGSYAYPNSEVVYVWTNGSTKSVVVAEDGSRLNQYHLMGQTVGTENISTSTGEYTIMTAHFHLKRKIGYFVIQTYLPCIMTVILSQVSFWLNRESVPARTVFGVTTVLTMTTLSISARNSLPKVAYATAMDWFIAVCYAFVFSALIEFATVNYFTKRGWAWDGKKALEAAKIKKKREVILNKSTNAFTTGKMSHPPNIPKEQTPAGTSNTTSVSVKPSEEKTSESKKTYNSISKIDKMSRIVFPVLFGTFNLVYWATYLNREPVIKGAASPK
Sequence of human α5β2γ2 GABAA receptors (P47870 25-512 limits assumed): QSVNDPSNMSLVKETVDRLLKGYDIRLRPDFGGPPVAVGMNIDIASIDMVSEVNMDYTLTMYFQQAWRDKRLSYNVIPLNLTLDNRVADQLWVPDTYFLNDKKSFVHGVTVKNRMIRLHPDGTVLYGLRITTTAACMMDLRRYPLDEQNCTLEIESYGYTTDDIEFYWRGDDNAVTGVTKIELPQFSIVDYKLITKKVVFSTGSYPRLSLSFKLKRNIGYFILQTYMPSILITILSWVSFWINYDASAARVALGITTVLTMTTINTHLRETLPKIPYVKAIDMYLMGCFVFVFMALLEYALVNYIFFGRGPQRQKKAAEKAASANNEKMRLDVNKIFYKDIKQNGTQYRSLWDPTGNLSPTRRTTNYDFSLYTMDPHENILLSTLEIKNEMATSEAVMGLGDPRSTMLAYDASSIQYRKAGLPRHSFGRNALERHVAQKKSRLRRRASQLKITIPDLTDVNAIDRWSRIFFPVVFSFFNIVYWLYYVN
Sequence of human α5β2γ2 GABAA receptors (P18507 40-475): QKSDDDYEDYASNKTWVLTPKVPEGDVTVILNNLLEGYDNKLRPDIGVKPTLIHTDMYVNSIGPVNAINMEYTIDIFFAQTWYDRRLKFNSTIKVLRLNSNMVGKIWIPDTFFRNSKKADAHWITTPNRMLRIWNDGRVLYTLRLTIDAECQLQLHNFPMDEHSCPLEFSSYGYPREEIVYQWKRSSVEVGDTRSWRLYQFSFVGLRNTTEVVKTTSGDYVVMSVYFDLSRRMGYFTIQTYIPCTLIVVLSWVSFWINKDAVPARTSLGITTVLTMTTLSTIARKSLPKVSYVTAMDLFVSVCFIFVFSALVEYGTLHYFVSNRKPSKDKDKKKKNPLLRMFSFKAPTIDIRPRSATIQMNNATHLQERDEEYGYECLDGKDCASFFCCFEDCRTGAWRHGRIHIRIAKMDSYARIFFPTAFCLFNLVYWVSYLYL

[33] = tested on: Cholecystokinin, CCK2 (CCKB); experiment: in vitro selectivity profile; assay type: binding; details: eslicarbazepine 400 μmol/L
[34] = tested on: Serotonin, 5HT1, nonselective; experiment: in vitro selectivity profile; assay type: binding; details: eslicarbazepine 400 μmol/L
[35] = molecular target: Protease, caspase, CASP-1 (h) (Homo sapiens, UniProt P29466); experiment: in vitro selectivity profile; assay type: biochemical
[36] = plasma and brain concentrations of eslicarbazepine after ESL; assay type: in vivo; details: mouse; for concentration at 60 min: 100 mg/kg; for concentration at 15 min: Amygdala kindling
[37] = tested on: Sigma 2; experiment: in vitro selectivity profile; assay type: binding; details: eslicarbazepine 400 μmol/L
[38] = tested on: Serotonin, 5HT2C; experiment: in vitro selectivity profile; assay type: binding; details: eslicarbazepine 400 μmol/L
[39] = human plasma and CSF pharmacokinetics; assay type: in vivo; details: ESL 1200 mg once daily, protein binding 30%
[40] = tested on: Thyrotropin-releasing hormone, TRH; experiment: in vitro selectivity profile; assay type: binding; details: eslicarbazepine 400 μmol/L
[41] = tested on: Imidazoline, I2 [central]; experiment: in vitro selectivity profile; assay type: binding; details: eslicarbazepine 400 μmol/L
[42] = tested on: Neurokinin, NK1; experiment: in vitro selectivity profile; assay type: binding; details: eslicarbazepine 400 μmol/L
[43] = molecular target: Anhydrase, carbonic, isozyme II (h) (Homo sapiens, UniProt P00918); experiment: in vitro selectivity profile; assay type: biochemical

NC(=O)N1c2ccccc2C[C@H](O)c2ccccc21 [eslicarbazepine]
% inhibition [1]: 34.46% | % inhibition [2]: 23.23% | % inhibition [3]: 11.32% | inhibition at 400 µM [4]: 20.4% | inhibition at 400 µM [5]: 0% | % inhibition [6]: 0.95% | inhibition at 400 µM [7]: 3.67% | inhibition at 400 µM [8]: 6.08% | inhibition at 400 µM [9]: 0% | inhibition at 400 µM [10]: 0% | % inhibition [11]: 0.0% | inhibition of firing of DGCs, control versus pilocarpine-treated rats [12]: equally effective in inhibiting firing of DGCs in control versus pilocarpine-treated rats | IC50, AMPA currents [13]: neither eslicarbazepine nor CBZ significantly changed AMPA currents | Fast inactivation V0.5 ([14]; mean ± SEM, n = 3–6): −40.68 ± 3.10 mV | Slow inactivation V0.5 ([14]; mean ± SEM, n = 3–6): −26.61 ± 2.74 mV | time constant for entering the slow inactivated state ([14]; control 20.29 sec): 14.02 s | % inhibition [15]: 26.95% | % inhibition [16]: 11.72% | inhibition at 400 µM [17]: 0% | % inhibition [18]: 1.56% | % inhibition [19]: 2.1% | % inhibition [20]: 0.0% | % inhibition [21]: 14.42% | inhibition at 400 µM [22]: 0% | % inhibition [23]: 23.75% | neuronal firing in dissociated granule cells from human hippocampus [24]: significantly inhibited neuronal firing | inhibition at 400 µM [25]: 0% | % inhibition [26]: 6.11% | % inhibition [27]: 25.92% | % inhibition [28]: 13.21% | % inhibition [29]: 0.0% | inhibition at 400 µM [30]: 32.3% | inhibition at 400 µM [31]: 27.7% | GABA inward current stimulation, α5β2γ2, Mean ± SEM ([32]; 50 μmol/L): 95.2 ± 2.2 | GABA inward current stimulation, α5β2γ2, Mean ± SEM ([32]; 100 μmol/L): 93.9 ± 0.6 | GABA inward current stimulation, α5β2γ2, Mean ± SEM ([32]; 250 μmol/L): 93.5 ± 1.8 | GABA inward current stimulation, α5β2γ2, Mean ± SEM ([32]; 500 μmol/L): 89.7 ± 3.4 | effect on submaximal α5β2γ2 GABA currents ([32]; 50–500 μmol/L): did not significantly change submaximal GABA currents | % inhibition [33]: 32.83% | % inhibition [34]: 11.43% | inhibition at 400 µM [35]: 0% | Kp at 60 min ([36]; NMRI, Swiss, brain and plasma, other: oral or intraperitoneal): 3.4 to 5.8 | concentration at 60 min ([36]; NMRI, brain (lipid fraction), intraperitoneal, Brain (lipid fraction) Eslicarbazepine, Corneal kindling, ESL 100 mg/kg i.p.): 564 µM | concentration at 15 min ([36]; NMRI, brain (lipid fraction), intraperitoneal, 200 mg/kg, Brain (lipid fraction) Eslicarbazepine, ESL 200 mg/kg i.p.): 313 µM | concentration at 15 min ([36]; NMRI, brain (lipid fraction), intraperitoneal, 300 mg/kg, Brain (lipid fraction) Eslicarbazepine, ESL 300 mg/kg i.p.): 489 µM | concentration at 60 min ([36]; NMRI, brain (organic phase), intraperitoneal, Brain (organic phase) Eslicarbazepine, Corneal kindling, ESL 100 mg/kg i.p.): 314 µM | concentration at 15 min ([36]; NMRI, brain (organic phase), intraperitoneal, 200 mg/kg, Brain (organic phase) Eslicarbazepine, ESL 200 mg/kg i.p.): 174 µM | concentration at 15 min ([36]; NMRI, brain (organic phase), intraperitoneal, 300 mg/kg, Brain (organic phase) Eslicarbazepine, ESL 300 mg/kg i.p.): 273 µM | concentration at 60 min ([36]; Swiss, brain (lipid fraction), oral, Brain (lipid fraction) Eslicarbazepine, Latrunculin A-induced seizures, ESL 100 mg/kg p.o.): 303 µM | concentration at 60 min ([36]; Swiss, brain (organic phase), oral, Brain (organic phase) Eslicarbazepine, Latrunculin A-induced seizures, ESL 100 mg/kg p.o.): 169 µM | % inhibition [37]: 6.11% | % inhibition [38]: 3.67% | eslicarbazepine-free drug, peak plasma [39]: 63 µmol/L | % inhibition [40]: 16.14% | % inhibition [41]: 17.45% | % inhibition [42]: 12.58% | inhibition at 400 µM [43]: 5.93%
